Measured values as given in patent US20070128217A1 (priority 2003, published 2007).

What was measured:
[1] = system: control sera (pooled serum of ten healthy LUMC hospital workers; commercial negative donor pooled serum from the Dutch bloodbank); assay type: binding, human; design: Binding of Control serum LUMC to linear peptides / Binding of Control serum Blood-bank to linear peptides / Binding of Control serum LUMC to looped peptides / Binding of Control Serum Blood-Bank to Looped peptides / Binding of Control serum LUMC to linear peptides of the protein M of SARS-CoV Urbani / Binding of Control serum Blood-bank to linear peptides of the protein M of SARS-CoV Urbani / Binding of Control serum LUMC to looped peptides of the protein M of SARS-CoV Urbani / Binding of Control Serum Blood-Bank to Looped peptides of the protein M of SARS-CoV Urbani: unit not given here
[2] = system: rabbit serum obtained by immunizing a rabbit with the SARS-CoV strain Frankfurt 1; assay type: binding; design: Binding of a rabbit serum to linear peptides / Binding of a rabbit serum to looped peptides / Rabbit serum linear peptides / Rabbit serum looped peptides / Binding of a rabbit serum to linear peptides of protein N of SARS-CoV Urbani (Rabbit serum linear peptides) / Binding of a rabbit serum to looped/cyclic peptides of protein N of SARS-CoV Urbani (Rabbit serum looped peptides): unit not given here
[3] = system: antibodies in sera from SARS patients (sera 1a, 1b, 2, 6, 37, 62, London, SARS-yellow, SARS-green); assay type: binding, human; design: Binding of serum 6 to linear peptides of protein X1 of SARS-CoV Urbani / Binding of serum 37 to linear peptides of protein X1 of SARS-CoV Urbani / Binding of serum 6 to looped/cyclic peptide (PEPSCAN-ELISA) / Binding of serum 37 to looped/cyclic peptide (PEPSCAN-ELISA) / Binding of serum 37 to looped/cyclic peptides of protein X1 of SARS-CoV Urbani / Binding of serum 6 to linear peptides of protein X2 / Binding of serum 37 to linear peptides of protein X2 / Binding of serum 37 to looped/cyclic peptides of protein X2 of SARS-CoV Urbani / Binding of serum 6 to linear peptides of protein M of SARS-CoV Urbani / Binding of serum 37 to linear peptides of protein M of SARS-CoV Urbani / Binding of serum 6 to looped/cyclic peptides of protein M of SARS-CoV Urbani / Binding of serum 37 to looped/cyclic peptides of protein M of SARS-CoV Urbani / Binding of serum 6 to linear peptides of protein X3 of SARS-CoV Urbani / Binding of serum 37 to linear peptides of protein X3 of SARS-CoV Urbani / Binding of serum 37 to looped/cyclic peptides of protein X3 of SARS-CoV Urbani / Binding of serum 6 to linear peptides of protein X4 of SARS-CoV Urbani / Binding of serum 37 to linear peptides of protein X4 of SARS-CoV Urbani / Binding of serum 37 to looped/cyclic peptides of protein X4 of SARS-CoV Urbani / Binding of serum 6 to linear peptides of protein X5 of SARS-CoV Urbani / Binding of serum 37 to linear peptides of protein X5 of SARS-CoV Urbani / Binding of serum 37 to looped/cyclic peptides of protein X5 of SARS-CoV Urbani / Binding of serum 6 to linear peptides of protein N of SARS-CoV Urbani / Binding of serum 37 to linear peptides of protein N of SARS-CoV Urbani / Binding of serum 6 to linear peptide (PEPSCAN-ELISA) / Binding of serum 1a to looped/cyclic peptides of protein N of SARS-CoV Urbani / Binding of serum 1b to looped/cyclic peptides of protein N of SARS-CoV Urbani / Binding of serum 2 to looped/cyclic peptides of protein N of SARS-CoV Urbani / Binding of serum 6 to looped/cyclic peptides of protein N of SARS-CoV Urbani / Binding of serum 37 to looped/cyclic peptides of protein N of SARS-CoV Urbani / Binding of serum 62 to looped/cyclic peptides of protein N of SARS-CoV Urbani / Binding of serum London to looped/cyclic peptides of protein N of SARS-CoV Urbani / Binding of serum SARS-green to looped/cyclic peptides of protein N of SARS-CoV Urbani: unit not given here
[4] = system: recombinant human anti-SARS-CoV antibody 03-018; assay type: binding; design: Binding of antibody 03-018 to linear peptides of the N protein of SARS-CoV Urbani / Binding of antibody 03-018 to looped/cyclic peptides of the N protein of SARS-CoV Urbani: unit not given here

Sequence | Binding of Control Serum Blood-Bank to Looped peptides [1] | Binding of Control serum Blood-bank to linear peptides [1] | Binding of Control serum LUMC to linear peptides [1] | Binding of Control serum LUMC to looped peptides [1] | Binding of a rabbit serum to linear peptides of protein N of SARS-CoV Urbani (Rabbit serum linear peptides) [2] | Binding of a rabbit serum to looped/cyclic peptides of protein N of SARS-CoV Urbani (Rabbit serum looped peptides) [2] | Binding of serum 1a to linear peptide (PEPSCAN-ELISA) [3] | Binding of serum 1a to looped/cyclic peptides of protein N of SARS-CoV Urbani [3] | Binding of serum 1b to linear peptide (PEPSCAN-ELISA) [3] | Binding of serum 1b to looped/cyclic peptides of protein N of SARS-CoV Urbani [3] | Binding of serum 2 to linear peptide (PEPSCAN-ELISA) [3] | Binding of serum 2 to looped/cyclic peptides of protein N of SARS-CoV Urbani [3] | Binding of serum 6 to looped/cyclic peptides of protein N of SARS-CoV Urbani [3] | Binding of serum 37 to looped/cyclic peptides of protein N of SARS-CoV Urbani [3] | Binding of serum 62 to looped/cyclic peptides of protein N of SARS-CoV Urbani [3] | Binding of serum London to looped/cyclic peptides of protein N of SARS-CoV Urbani [3] | Binding of serum SARS-green to looped/cyclic peptides of protein N of SARS-CoV Urbani [3] | Binding of serum SARS-yellow to looped/cyclic peptides of protein N of SARS-CoV Urbani [3] | Binding of antibody 03-018 to linear peptides of the N protein of SARS-CoV Urbani [4] | Binding of antibody 03-018 to looped/cyclic peptides of the N protein of SARS-CoV Urbani [4] | also measured
SRGNSPARMASGGGE | 0.5 | 0.8 | 0.8 | 0.4 | 0.1 | 0.2 | 0.3 | 0.2 | 0.2 | 0.1 | 0.1 | 0.2 | 0.1 | 0.4 | 0.3 | 0.3 | 0.2 | 0.1 | 0.1 | 0.2 | Binding of serum 6 to linear peptide (PEPSCAN-ELISA) [3]: 0.2; Binding of serum 37 to linear peptide (PEPSCAN-ELISA) [3]: 0.6; Binding of serum 62 to linear peptide (PEPSCAN-ELISA) [3]: 0.6; Binding of serum London to linear peptide (PEPSCAN-ELISA) [3]: 0.6; Binding of serum SARS-green to linear peptide (PEPSCAN-ELISA) [3]: 0.2; Binding of serum SARS-yellow to linear peptide (PEPSCAN-ELISA) [3]: 0.6
SRGNSRNSTPGSSRG | 0.4 | 0.9 | 0.8 | 0.4 | 0.2 | 0.2 | 0.7 | 0.6 | 0.4 | 0.4 | 0.2 | 0.2 | 0.2 | 0.4 | 0.3 | 0.3 | 0.1 | 0.2 | 0.1 | 0.2 | Binding of serum 6 to linear peptide (PEPSCAN-ELISA) [3]: 0.2; Binding of serum 37 to linear peptide (PEPSCAN-ELISA) [3]: 0.7; Binding of serum 62 to linear peptide (PEPSCAN-ELISA) [3]: 0.7; Binding of serum London to linear peptide (PEPSCAN-ELISA) [3]: 0.5; Binding of serum SARS-green to linear peptide (PEPSCAN-ELISA) [3]: 0.4; Binding of serum SARS-yellow to linear peptide (PEPSCAN-ELISA) [3]: 0.7
SRNSTPGSSRGNSPA | 0.7 | 0.9 | 0.9 | 0.7 | 0.1 | 0.6 | 0.7 | 0.6 | 0.5 | 0.6 | 0.4 | 0.4 | 0.4 | 0.5 | 0.5 | 0.4 | 0.3 | 0.4 | 0.1 | 0.2 | Binding of serum 6 to linear peptide (PEPSCAN-ELISA) [3]: 0.2; Binding of serum 37 to linear peptide (PEPSCAN-ELISA) [3]: 0.8; Binding of serum 62 to linear peptide (PEPSCAN-ELISA) [3]: 0.9; Binding of serum London to linear peptide (PEPSCAN-ELISA) [3]: 0.6; Binding of serum SARS-green to linear peptide (PEPSCAN-ELISA) [3]: 0.4; Binding of serum SARS-yellow to linear peptide (PEPSCAN-ELISA) [3]: 0.7
SRQLQNSMSGASADS |  |  |  |  | 0.5 | 0.6 |  | 0.2 |  | 0.1 |  | 0.3 | 0.1 | 0.4 | 0.3 | 0.2 | 0.3 | 0.2 | 0.1 | 0.2 | Control Serum Blood-Bank Looped peptides [1]: 0.5; Control serum Blood-bank linear peptides [1]: 0.8; Control serum LUMC linear peptides [1]: 0.7; Control serum LUMC looped peptides [1]: 0.3; Binding of serum 1a to linear peptides of protein N of SARS-CoV Urbani [3]: 0.2; Binding of serum 1b to linear peptides of protein N of SARS-CoV Urbani [3]: 0.1; Binding of serum 2 to linear peptides of protein N of SARS-CoV Urbani [3]: 0.2; Binding of serum 6 to linear peptides of protein N of SARS-CoV Urbani [3]: 0.2; Binding of serum 37 to linear peptides of protein N of SARS-CoV Urbani [3]: 0.8; Binding of serum 62 to linear peptides of protein N of SARS-CoV Urbani [3]: 0.6; Binding of serum London to linear peptides of protein N of SARS-CoV Urbani [3]: 0.6; Binding of serum SARS-green to linear peptides of protein N of SARS-CoV Urbani [3]: 0.5; Binding of serum SARS-yellow to linear peptides of protein N of SARS-CoV Urbani [3]: 0.5
